Consider 30 compounds from the Kinase Knowledgebase extract (Sharma et al. 2016).

The target of assay [1] is EGFR (UniProt P00533).
The target in a further assay is CDK2 (human) (UniProt P24941).
Assay [2] has as its target EGFR (human) (UniProt P00533).
Assay [3] has as its target EGFR (human) (UniProt P00533). As to conditions: kb.
The target of assay [4] is EGFR (human) (UniProt P00533). The source holds these as a separate data set.
The target in assay [5] is EGFR (human) (UniProt P00533). As to conditions: a431.
Assay [6] deals with EGFR (UniProt P00533). As to conditions: concentration not given here.
Assay [7] has as its target EGFR (human) (UniProt P00533). This is another data set of the same source.
Assay [8] concerns the target EGFR (human) (UniProt P00533). As to conditions: hn5.
The target of assay [9] is EGFR (human) (UniProt P00533). Particulars: hn5. This is another data set of the same source.
In assay [10] the target is EGFR (human) (UniProt P00533). This is another data set of the same source.
The target in assay [11] is CDK2 (UniProt P24941). The assay is described as follows: Enzyme Assay.
Assay [12] addresses EGFR (UniProt P00533). This is another data set of the same source.
For assay [13], the target named is EGFR (human) (UniProt P00533). Particulars: hn5. The source holds these as a separate data set.
Assay [14] addresses PIK3CA (human), P42336 [Assessment of PIK3CA (Mutant) Kinase Activity in MCF-7.1 Cell Line]. The assay is described as follows: Assessment of PIK3CA (Mutant) Kinase Activity in MCF-7.1 Cell Line. Particulars: mcf-7.
The target of assay [15] is CDK2 (UniProt P24941). The assay is described as follows: Enzyme Assay. The source holds these as a separate data set.
The target in the next assay is PIK3CA (human) (UniProt P42336). The assay is described as follows: Inhibition of PIK3CA Kinase Activity (FP Assay).
The target of a further assay is PIK3CG (human) (UniProt P48736). The assay is described as follows: Inhibition of PIK3CG Kinase Activity.
In assay [16] the target is EGFR (human) (UniProt P00533). Particulars: hn5. The source holds these as a separate data set.
For assay [17], the target named is EGFR (human) (UniProt P00533). This is another data set of the same source.
Assay [18] deals with MAPK14 (UniProt Q16539). The assay is described as follows: CSBP binding - Inhibition of RBL-1 5 Lipoxygenase Enzyme Assay.
Assay [19] deals with MAPK14 (UniProt Q16539). The assay is described as follows: CSBP binding - Inhibition of Prostaglandin H Synthase Type-1 Enzyme Assay.
In assay [20] the target is EGFR (human) (UniProt P00533). As to conditions: a431. The source holds these as a separate data set.
In another assay the target is ROCK2 (UniProt O75116). The assay is described as follows: Inhibition of ROCK-II Kinase Activity. Particulars: concentration not given here.
The target of assay [21] is MAPK14 (UniProt Q16539). The assay is described as follows: Inhibition of MAPK14 Kinase Activity. As to conditions: concentration not given here.
Assay [22] addresses MAPK14 (UniProt Q16539). The assay is described as follows: Inhibition of MAPK14 Kinase Activity (Binding Assay).
The target of assay [23] is MAPK14 (UniProt Q16539). The assay is described as follows: Inhibition of MAPK14 Kinase Activity (Spectrophometric Assay).
Assay [24] concerns the target EGFR (human) (UniProt P00533). This is another data set of the same source.
Assay [25] addresses EGFR (human) (UniProt P00533). Particulars: kb. This is another data set of the same source.

≈ marks a conversion by molar mass, not a printed value.

MAPK14, sequence (Q16539 whole entry, looked up): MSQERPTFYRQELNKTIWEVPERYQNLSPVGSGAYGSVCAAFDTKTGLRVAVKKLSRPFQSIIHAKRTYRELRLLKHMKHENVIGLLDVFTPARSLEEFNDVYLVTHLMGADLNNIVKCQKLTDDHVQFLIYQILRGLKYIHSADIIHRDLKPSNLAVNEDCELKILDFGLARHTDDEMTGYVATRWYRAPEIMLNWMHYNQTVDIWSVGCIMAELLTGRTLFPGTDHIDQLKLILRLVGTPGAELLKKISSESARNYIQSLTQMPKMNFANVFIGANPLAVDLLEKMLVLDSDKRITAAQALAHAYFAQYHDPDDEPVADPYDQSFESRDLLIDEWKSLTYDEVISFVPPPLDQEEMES
EGFR, sequence (P00533 whole entry, looked up): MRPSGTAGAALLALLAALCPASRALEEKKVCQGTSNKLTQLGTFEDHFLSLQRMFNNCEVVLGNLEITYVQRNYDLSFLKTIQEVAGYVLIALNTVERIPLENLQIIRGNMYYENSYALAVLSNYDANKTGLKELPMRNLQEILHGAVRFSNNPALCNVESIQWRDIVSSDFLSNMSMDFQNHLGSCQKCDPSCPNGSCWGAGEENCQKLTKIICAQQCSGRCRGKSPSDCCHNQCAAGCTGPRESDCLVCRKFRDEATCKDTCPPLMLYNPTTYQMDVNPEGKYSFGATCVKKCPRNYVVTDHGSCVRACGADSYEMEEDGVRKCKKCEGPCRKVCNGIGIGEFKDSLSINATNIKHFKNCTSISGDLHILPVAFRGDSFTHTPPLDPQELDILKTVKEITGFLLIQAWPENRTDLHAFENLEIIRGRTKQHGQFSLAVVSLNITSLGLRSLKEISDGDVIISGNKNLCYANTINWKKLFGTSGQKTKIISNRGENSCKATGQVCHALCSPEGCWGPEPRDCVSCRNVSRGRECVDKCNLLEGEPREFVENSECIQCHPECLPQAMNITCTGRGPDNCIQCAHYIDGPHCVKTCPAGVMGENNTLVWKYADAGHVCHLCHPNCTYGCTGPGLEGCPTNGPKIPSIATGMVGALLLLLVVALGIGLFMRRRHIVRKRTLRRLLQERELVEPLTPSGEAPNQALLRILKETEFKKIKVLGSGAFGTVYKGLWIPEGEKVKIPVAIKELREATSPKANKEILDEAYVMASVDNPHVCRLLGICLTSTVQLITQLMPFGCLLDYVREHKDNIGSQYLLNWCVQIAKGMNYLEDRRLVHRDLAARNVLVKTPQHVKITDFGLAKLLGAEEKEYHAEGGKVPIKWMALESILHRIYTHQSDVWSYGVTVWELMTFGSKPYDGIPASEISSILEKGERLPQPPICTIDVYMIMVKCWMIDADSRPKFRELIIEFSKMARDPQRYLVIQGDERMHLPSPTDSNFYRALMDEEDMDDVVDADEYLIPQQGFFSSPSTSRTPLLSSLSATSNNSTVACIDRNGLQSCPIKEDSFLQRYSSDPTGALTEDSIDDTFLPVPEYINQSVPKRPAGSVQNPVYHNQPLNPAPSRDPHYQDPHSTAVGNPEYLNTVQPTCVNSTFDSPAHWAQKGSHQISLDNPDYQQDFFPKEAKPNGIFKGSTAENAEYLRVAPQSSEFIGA
EGFR (human), sequence (P00533 whole entry, looked up): as above
ROCK2, sequence (O75116 whole entry, looked up): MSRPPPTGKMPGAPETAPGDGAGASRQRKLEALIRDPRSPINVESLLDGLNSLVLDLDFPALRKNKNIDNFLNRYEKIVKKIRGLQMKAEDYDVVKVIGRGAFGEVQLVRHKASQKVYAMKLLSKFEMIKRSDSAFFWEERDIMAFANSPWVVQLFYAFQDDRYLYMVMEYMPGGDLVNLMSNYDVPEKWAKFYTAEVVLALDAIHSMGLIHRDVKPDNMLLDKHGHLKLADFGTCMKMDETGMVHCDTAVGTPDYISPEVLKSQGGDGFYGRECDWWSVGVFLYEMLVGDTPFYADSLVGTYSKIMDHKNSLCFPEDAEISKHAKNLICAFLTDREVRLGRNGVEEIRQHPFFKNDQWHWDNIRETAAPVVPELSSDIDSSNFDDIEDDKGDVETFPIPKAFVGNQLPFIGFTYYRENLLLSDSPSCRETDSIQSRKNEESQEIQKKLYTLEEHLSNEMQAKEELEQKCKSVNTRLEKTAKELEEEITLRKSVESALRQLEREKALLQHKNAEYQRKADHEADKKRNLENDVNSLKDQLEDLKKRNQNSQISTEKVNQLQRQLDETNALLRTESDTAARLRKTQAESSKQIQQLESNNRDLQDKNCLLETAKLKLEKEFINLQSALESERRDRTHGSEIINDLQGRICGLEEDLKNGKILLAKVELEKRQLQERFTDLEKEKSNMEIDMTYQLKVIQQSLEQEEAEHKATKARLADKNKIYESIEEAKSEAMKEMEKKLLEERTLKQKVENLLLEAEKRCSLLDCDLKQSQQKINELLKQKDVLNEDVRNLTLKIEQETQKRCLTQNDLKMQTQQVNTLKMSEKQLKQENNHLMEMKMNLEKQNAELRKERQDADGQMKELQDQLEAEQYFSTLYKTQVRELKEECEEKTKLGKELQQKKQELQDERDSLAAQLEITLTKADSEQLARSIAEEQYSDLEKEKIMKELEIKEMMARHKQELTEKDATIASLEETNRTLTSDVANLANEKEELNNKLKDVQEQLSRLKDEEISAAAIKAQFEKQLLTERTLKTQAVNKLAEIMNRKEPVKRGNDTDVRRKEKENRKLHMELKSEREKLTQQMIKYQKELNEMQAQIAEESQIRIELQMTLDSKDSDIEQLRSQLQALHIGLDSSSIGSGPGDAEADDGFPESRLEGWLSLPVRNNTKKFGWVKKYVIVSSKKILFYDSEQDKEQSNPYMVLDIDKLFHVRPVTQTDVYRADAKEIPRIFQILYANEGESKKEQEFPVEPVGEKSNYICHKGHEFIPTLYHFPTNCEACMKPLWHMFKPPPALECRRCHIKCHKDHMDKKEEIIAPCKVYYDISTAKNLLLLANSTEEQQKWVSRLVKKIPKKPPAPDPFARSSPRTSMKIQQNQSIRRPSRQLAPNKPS

Turning to `CN1CCC(Oc2cccc3ncnc(Nc4ccc(OCc5cscn5)c(Cl)c4)c23)CC1`, at EGFR [1], the IC50 was found to be 280 nM.

For the compound `O=C1Nc2ccc3ncsc3c2C1=NNc1ccc(S(=O)(=O)O)cc1`, at CDK2 (human), the IC50 was found to be 540 nM. Regarding `N#Cc1cnc2cc3c(cc2c1Nc1ccc(F)c(Cl)c1)N(C(=O)/C=C/CBr)CCO3`, the IC50 against EGFR (human) [2] came out at 1000 nM. On to `COc1cc2ncnc(Nc3cccc(Cl)c3F)c2cc1OC1CCN(CC(=O)NCCN2CCCC2)CC1`, for which the IC50 at EGFR (human) [3] was 17 nM. Regarding `COc1cc2c(cc1OC)Oc1ncnc(Oc3cccc(Br)c3)c1N(C)C2`, the half-maximal inhibitory concentration (IC50) at EGFR (human) [4] worked out at 4600 nM. In turn, `COc1ccc(-c2[nH]nc3c2C(=O)c2c(NC(=O)Nc4ccc(O)cc4)cccc2-3)cc1` returned a GI50 with EGFR (human) [5] of over 10000 nM. On to `O=C1NC(=O)c2c1c1c3ccccc3[nH]c1c1[nH]c3cc(O)c(O)cc3c21`, for which, on EGFR [6], the inhibition fell in the range of 50 to 80%.

For `CNC(=O)CN1CCC(Oc2cc3c(Nc4ccc(F)c(Cl)c4F)ncnc3cc2OC)CC1`, the IC50 on EGFR (human) [3] was found to be 9 nM.

On EGFR (human) [7], `Clc1cccc(Nc2cncc(-c3cncc(NCCCN4CCCCC4)c3)n2)c1` returned an IC50 of over 100000 nM. `C#Cc1cccc(Nc2ncnc3ccc(OCCCCNCCS(C)(=O)=O)cc23)c1` registered an IC50 on EGFR (human) [8] of 45 nM.

As for `CS(=O)(=O)CCNCc1nc(-c2ccc3ncnc(Nc4ccc(OCc5cccc(F)c5)c(Cl)c4)c3c2)cs1`, the IC50 against EGFR (human) [9] was 80 nM; against EGFR (human) [10], under 100 nM. With `CNC(=O)N1CCN(Cc2ccnc(Nc3ncc(C#N)s3)c2C)CC1`, the figures for the half-maximal inhibitory concentration (IC50) at CDK2 [11] and at EGFR [12] were 13700 nM and over 19200 nM, respectively. Take `CS(=O)(=O)CCNCc1cc(-c2cc3ncnc(Nc4ccc(OCc5cccc(F)c5)c(Cl)c4)c3s2)cs1`: the IC50 against EGFR (human) [13] was 100 nM. In assay [14], `Cc1nc(N)ncc1-c1nc(N2CCOCC2)c2sc(C(C)(C)O)cc2n1` registered an IC50 of 280 nM.

In the case of `CC(=O)NCc1ccc(Nc2nccc(-c3sc(=O)n(C)c3C)n2)cc1`, the Ki on CDK2 [15] was determined as 220 nM; on CDK2 [11], 34 nM. For `COC[C@H]1OC(=O)/C(=C/N(C)CCCN(C)C)C2=C(O)C(=O)C3=C([C@H](OC(C)=O)C[C@@]4(C)C3CC[C@@H]4O)[C@]21C` (some centres undefined), the results for the 50% inhibitory concentration (IC50) at PIK3CA (human) and on PIK3CG (human) were 6.4 nM and 8 nM, respectively. Take `Cn1ccnc1S(=O)(=O)CCNCc1ccc(-c2ccc3ncnc(Nc4ccc(OCc5cccc(F)c5)c(Cl)c4)c3c2)o1`: the IC50 turned out to be 500 nM against EGFR (human) [16] and 17 nM at EGFR (human) [17]. As to `Clc1ccc(-c2ncn(CCCN3CCOCC3)c2-c2ccncc2)cc1Cl`, the IC50 at MAPK14 [18] and on MAPK14 [19] was over 100000 nM throughout.

With `C#Cc1cccc(Nc2c([N+](=O)[O-])cnc3cc(OCc4ccccc4)c(OC)cc23)c1`, the IC50 at EGFR (human) [20] turned out to be 490 nM. `CS(=O)(=O)CCNCc1ccc(-c2ccc3ncnc(Nc4ccc(OCc5cccc(F)c5)c(Br)c4)c3c2)o1` had an IC50 on EGFR (human) [10] of under 100 nM. `CN(C)c1nc2c(Br)c(Br)c(Br)c(Br)c2[nH]1`: the figures for the inhibition at ROCK2 and against MAPK14 [21] were 31% and 15%, respectively.

On EGFR (human) [7], `Clc1cccc(Nc2cncc(-c3cncc(NCCCc4ccncc4)c3)n2)c1` displayed an IC50 of over 100000 nM.

Take `CNC(=O)N1CCN(Cc2ccnc(Nc3ncc(C#N)s3)c2)CC1`: the IC50 against CDK2 [11] is 3940 nM; at EGFR [12], over 19200 nM.

Consider `CC12CC(C(=O)O)CC(C)(C1)C(=O)N(Cc1cccc(-n3nc(C(C)(C)C)cc3NC(=O)Nc3cccc4ccccc34)c1)C2=O` (centres undefined), for which the IC50 at MAPK14 [22] was found to be 2150 nM; against MAPK14 [23], 953 nM. `N#Cc1cnc2cc3c(cc2c1Nc1ccc(F)c(Cl)c1)N(C(=O)/C=C/CCl)CCO3` had an IC50 on EGFR (human) [2] of 1000 nM.

Consider `CCOc1cc2ncc(C#N)c(Nc3ccc(F)c(Cl)c3)c2cc1NC(=O)CC(CN(C)C)SCC(NC(=O)CC[C@@H](N)C(=O)O)C(=O)NCC(=O)O` (some centres undefined), for which the IC50 against EGFR (human) [24] is 1.7 µg/mL (≈ 2.19 µM).

In the assay with EGFR (human) [5], `Nc1ccc(NC(=O)Nc2cccc3c2C(=O)c2c-3n[nH]c2-c2ccc(O)cc2)cc1` gave a GI50 of over 10000 nM.

`CNC(=O)C1(N(C)Cc2cc3c(Nc4cccc(Cl)c4F)ncnc3cc2OC)CCN(C)CC1` had an IC50 at EGFR (human) [25] of 36 nM.

On to `O=C1NCc2c1c1c3ccc(O)cc3[nH]c1c1[nH]c3ccccc3c21`, for which the inhibition against EGFR [6] fell in the range of 50 to 80%.

As for `COc1cc2ncc(C#N)c(Nc3ccc(Sc4nc(-c5ccccc5)cs4)c(Cl)c3)c2cc1C(C(N)=O)C(CN(C)C)N(C)C` (centres undefined), the IC50 at EGFR (human) [24] came out at 3.2 µg/mL (≈ 4.76 µM).
